For 18 compounds, EC50 results are on record in patent publication US7517884B2 (Kalypsys Inc., priority 1998, dated 2009).

Each structure is given as a SMILES string.

Format in all cases: cell-based, murine and human
What all share (conditions): GAL4-PPAR LBD chimera

One test addresses T1, PPAR-gamma (UniProt P37231).
T1 sequence (P37231 1-505): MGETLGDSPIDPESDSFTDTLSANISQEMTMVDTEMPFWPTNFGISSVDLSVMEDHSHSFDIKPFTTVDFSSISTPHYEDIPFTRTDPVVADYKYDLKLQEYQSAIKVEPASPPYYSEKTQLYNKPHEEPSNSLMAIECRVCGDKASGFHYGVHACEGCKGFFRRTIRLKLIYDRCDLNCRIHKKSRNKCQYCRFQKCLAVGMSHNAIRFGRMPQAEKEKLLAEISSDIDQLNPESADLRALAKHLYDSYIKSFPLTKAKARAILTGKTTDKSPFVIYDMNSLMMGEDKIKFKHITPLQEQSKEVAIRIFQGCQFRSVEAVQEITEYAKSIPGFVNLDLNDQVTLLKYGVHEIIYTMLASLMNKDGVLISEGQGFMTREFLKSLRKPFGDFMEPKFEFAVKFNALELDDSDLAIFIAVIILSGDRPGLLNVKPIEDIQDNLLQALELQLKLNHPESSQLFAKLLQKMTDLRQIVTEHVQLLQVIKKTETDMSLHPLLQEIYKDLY
The experiment in a line: PPAR-gamma transactivation assay (GAL4 chimera, luciferase reporter) in CV-1 cells. The text has this:
(§1) Compounds may be screened for functional potency in transient transfection assays in CV-1 cells for their ability to activate the PPAR subtypes (transactivation assay). A previously established chimeric receptor system was utilized to allow comparison of the relative transcriptional activity of the receptor subtypes on the same synthetic response element and to prevent endogenous receptor activation from complicating the interpretation of results. See, for example, Lehmann, J. M.; Moore, L. B.; Smith-Oliver, T. A; Wilkinson, W. O.; Willson, T. M.; Kliewer, S. A., An antidiabetic thiazolidinedione is a high affinity ligand for peroxisome proliferator-activated receptor […], J. Biol. Chem., 1995, 270, 12953-6. The ligand binding domains for murine and human PPAR-alpha, PPAR-gamma, and PPAR-delta are each fused to the yeast transcription factor GAL4 DNA binding domain. CV-1 cells were transiently transfected with expression vectors for the respective PPAR chimera along with a reporter construct containing four or five copies of the GAL4 DNA binding site driving expression of luciferase. After 8-16 h, the cells are replated into multi-well assay plates and the media is exchanged to phenol-red free DME medium supplemented with 5% delipidated calf serum. 4 hours after replating, cells were treated with either compounds or 1% DMSO for 20-24 hours. Luciferase activity was then assayed with Britelite (Perkin Elmer) following the manufacturer's protocol and measured with either the Perkin Elmer Viewlux or Molecular Devices Acquest (see, for example, Kliewer, S. A., et. al. Cell 1995, 83, 813-819). Rosiglitazone is used as a positive control in the PPARγ assay. Wy-14643 and GW7647 are used as positive controls in the PPARα assay. GW501516 is used as the positive control in the PPARδ assay.
(§2) Compounds of Examples 1-141 were assayed to measure their biological activity with respect to their EC50 values for modulating PPAR-alpha, PPAR-gamma, and PPAR-delta as set forth in Table 1.
On the technique in general: Reporter assays use an easily measured gene product as a stand-in for the process of interest.

The target of another test is T2, PPAR-alpha (UniProt Q07869).
T2 sequence (Q07869 1-468): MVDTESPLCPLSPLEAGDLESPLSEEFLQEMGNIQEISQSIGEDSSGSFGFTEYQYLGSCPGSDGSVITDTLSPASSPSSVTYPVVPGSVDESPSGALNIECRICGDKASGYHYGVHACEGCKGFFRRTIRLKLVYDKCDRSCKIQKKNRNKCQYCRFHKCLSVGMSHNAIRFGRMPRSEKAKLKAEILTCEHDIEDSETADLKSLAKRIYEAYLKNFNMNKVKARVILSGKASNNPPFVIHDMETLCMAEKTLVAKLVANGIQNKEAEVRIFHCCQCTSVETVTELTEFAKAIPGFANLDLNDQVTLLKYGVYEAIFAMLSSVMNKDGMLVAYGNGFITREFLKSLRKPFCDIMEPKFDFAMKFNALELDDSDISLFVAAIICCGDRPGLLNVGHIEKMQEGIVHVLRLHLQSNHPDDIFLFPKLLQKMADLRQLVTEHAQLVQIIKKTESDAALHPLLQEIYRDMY
The experiment in a line: PPAR-alpha transactivation assay (GAL4 chimera, luciferase reporter) in CV-1 cells.
Description: as §1, §2

Another test concerns the target T3, PPAR-delta (UniProt Q03181).
T3 sequence (Q03181 1-441): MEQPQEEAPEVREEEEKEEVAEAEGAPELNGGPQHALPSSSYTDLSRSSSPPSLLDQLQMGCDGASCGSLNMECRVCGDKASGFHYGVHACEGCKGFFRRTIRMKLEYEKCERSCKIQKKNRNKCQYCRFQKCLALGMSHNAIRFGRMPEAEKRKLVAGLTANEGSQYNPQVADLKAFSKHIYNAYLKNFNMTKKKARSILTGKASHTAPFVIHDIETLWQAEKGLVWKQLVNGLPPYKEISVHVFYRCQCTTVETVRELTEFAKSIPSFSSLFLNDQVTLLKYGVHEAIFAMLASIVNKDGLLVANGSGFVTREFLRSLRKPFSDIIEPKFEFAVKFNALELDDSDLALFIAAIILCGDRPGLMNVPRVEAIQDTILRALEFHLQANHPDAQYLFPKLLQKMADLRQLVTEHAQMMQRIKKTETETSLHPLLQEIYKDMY
The experiment in a line: PPAR-delta transactivation assay (GAL4 chimera, luciferase reporter) in CV-1 cells.
Description: as §1, §2

For orientation: EC50 means the concentration at which the effect is half-maximal. Lower therefore signals higher potency in that assay. With `O=C(O)C1CCc2ccc(S(=O)(=O)N3CC=C(c4ccc(C(F)(F)F)cc4)CC3)cc21` (stereo not drawn) [Example 22, 6-[4-(4-trifluoromethyl-phenyl)-3,6-dihydro-2H-pyridine-1-sulfonyl]-indan-1-carboxylic acid], the results for the EC50 at PPAR-gamma, on PPAR-alpha and at PPAR-delta were 5 to 100 µM, below 5 µM and below 5 µM, respectively.

With `C[C@H]1CN(c2ccc(C(F)(F)F)cn2)CCN1S(=O)(=O)c1ccc2c(c1)C(C(=O)O)CC2` (stereo partly drawn) [Example 23, 6-[2-(S)-methyl-4-(5-trifluoromethyl-pyridin-2-yl)-piperazine-1-sulfonyl]-indan-1-carboxylic acid], the EC50 on PPAR-gamma, on PPAR-alpha and at PPAR-delta was below 5 µM in each case.

As to `C[C@@H]1CN(c2ccc(C(F)(F)F)cn2)CCN1S(=O)(=O)c1ccc2c(c1)C(C(=O)O)CC2` (stereo partly drawn) [Example 24, 6-[2-(R)-methyl-4-(5-trifluoromethyl-pyridin-2-yl)-piperazine-1-sulfonyl]-indan-1-carboxylic acid], the EC50 on PPAR-gamma, at PPAR-alpha and at PPAR-delta was below 5 µM in each case.

Regarding `C[C@@H]1CN(S(=O)(=O)c2ccc3c(c2)C(C(=O)O)CC3)CCN1c1ccc(C(F)(F)F)cn1` (stereo partly drawn) [Example 25, 6-[3-(R)-methyl-4-(5-trifluoromethyl-pyridin-2-yl)-piperazine-1-sulfonyl]-indan-1-carboxylic acid], the EC50 on PPAR-gamma, on PPAR-alpha and on PPAR-delta was below 5 µM throughout.

`O=C(O)C1CCc2ccc(S(=O)(=O)N3CCN(c4ccc(C(F)(F)F)c(F)c4)CC3)cc21` (stereo not drawn) [Example 26, 6-[4-(3-fluoro-4-trifluoromethyl-phenyl)-piperazine-1-sulfonyl]-indan-1-carboxylic acid]: the 50% effective concentration (EC50) on PPAR-gamma, on PPAR-alpha and on PPAR-delta was below 5 µM in each case.

For the compound `C[C@@H]1CN(c2ccc(C(F)(F)F)cn2)C[C@H](C)N1S(=O)(=O)c1ccc2c(c1)C(C(=O)O)CC2` (stereo partly drawn) [Example 27, 6-[cis-2,6-dimethyl-4-(5-trifluoromethyl-pyridin-2-yl)-piperazine-1-sulfonyl]-indan-1-carboxylic acid], the EC50 at PPAR-gamma is 5 to 100 µM; on PPAR-alpha, 5 to 100 µM; at PPAR-delta, below 5 µM.

Consider `C[C@@H]1CN(c2ccc(C(F)(F)F)cn2)C[C@H](C)N1S(=O)(=O)c1ccc2c(c1)C(C)(C(=O)O)CC2` (stereo partly drawn) [Example 28, 6-[cis-2,6-dimethyl-4-(5-trifluoromethyl-pyridin-2-yl)-piperazine-1-sulfonyl]-1-methyl-indan-1-carboxylic acid], for which the EC50 on PPAR-gamma is 5 to 100 µM; at PPAR-alpha, above 100 µM; on PPAR-delta, below 5 µM.

As to `COc1cc2c(cc1S(=O)(=O)N1CCN(c3ccc(C(F)(F)F)cc3)CC1)CCC2CC(=O)O` (stereo not drawn) [Example 29, {6-methoxy-5-[4-(4-trifluoromethyl-phenyl)-piperazine-1-sulfonyl]-indan-1-yl}-acetic acid], the EC50 at PPAR-gamma, on PPAR-alpha and at PPAR-delta was 5 to 100 µM throughout.

For `COc1cc2c(cc1S(=O)(=O)N1CCN(c3ccc(Cl)c(Cl)c3)CC1)CCC2CC(=O)O` (stereo not drawn) [Example 30, {5-[4-(3,4-dichloro-phenyl)-piperazine-1-sulfonyl]-6-methoxy-indan-1-yl}-acetic acid], the EC50 on PPAR-gamma, at PPAR-alpha and at PPAR-delta was 5 to 100 µM each time.

With `O=C(O)Cn1ccc2cc(S(=O)(=O)N3CCN(c4ccc(C(F)(F)F)cc4)CC3)ccc21` [Example 31, {5-[4-(4-Trifluoromethyl-phenyl)-piperazine-1-sulfonyl]-indol-1-yl}-acetic acid], the results for the EC50 at PPAR-gamma, at PPAR-alpha and on PPAR-delta were above 100 µM, above 100 µM and 5 to 100 µM, respectively.

Take `O=C(O)Cn1ccc2cc(Br)c(S(=O)(=O)N3CCN(c4ccc(C(F)(F)F)cc4)CC3)cc21` [Example 32, {5-Bromo-6-[4-(4-trifluoromethyl-phenyl)-piperazine-1-sulfonyl]-indol-1-yl}-acetic acid]: the concentration for a half-maximal effect (EC50) was 5 to 100 µM on PPAR-gamma, above 100 µM at PPAR-alpha and below 5 µM at PPAR-delta.

Turning to `O=C(O)Cn1ccc2cc(Br)c(S(=O)(=O)N3CCN(c4ccc(C(F)(F)F)cn4)CC3)cc21` [Example 33, {5-Bromo-6-[4-(5-trifluoromethyl-pyridin-2-yl)-piperazine-1-sulfonyl]-indol-1-yl}-acetic acid], the values for the EC50 at PPAR-gamma, at PPAR-alpha and at PPAR-delta were 5 to 100 µM, above 100 µM and below 5 µM, respectively.

Turning to `O=C(O)Cn1ccc2ccc(S(=O)(=O)N3CCN(c4ccc(C(F)(F)F)cc4)CC3)cc21` [Example 34, {6-[4-(4-Trifluoromethyl-phenyl)-piperazine-1-sulfonyl]-indol-1-yl}-acetic acid], the values for the half-maximal effective concentration (EC50) on PPAR-gamma, at PPAR-alpha and on PPAR-delta were 5 to 100 µM, above 100 µM and below 5 µM, respectively.

With `O=C(O)Cn1ccc2ccc(S(=O)(=O)N3CCN(c4ccc(C(F)(F)F)cn4)CC3)cc21` [Example 35, {6-[4-(5-trifluoromethyl-pyridin-2-yl)-piperazine-1-sulfonyl]-indol-1-yl}-acetic acid], the EC50 on PPAR-gamma was 5 to 100 µM; on PPAR-alpha it was 5 to 100 µM; on PPAR-delta, below 5 µM.

As to `COc1ccc2c(CC(=O)O)csc2c1S(=O)(=O)N1CCN(c2ccc(C(F)(F)F)cn2)CC1` [Example 36, {6-Methoxy-7-[4-(5-trifluoromethyl-pyridin-2-yl)-piperazine-1-sulfonyl]-benzo[b]thiophen-3-yl}-acetic acid], the 50% effective concentration (EC50) at PPAR-gamma is 5 to 100 µM; at PPAR-alpha it was above 100 µM; at PPAR-delta, above 100 µM.

Consider `O=C(O)Cc1csc2ccc(S(=O)(=O)N3CCN(c4ccc(C(F)(F)F)cn4)CC3)cc12` [Example 37, {5-[4-(5-Trifluoromethyl-pyridin-2-yl)piperazine-1-sulfonyl]-benzo[b]thiophen-3-yl}-acetic acid], for which the 50% effective concentration (EC50) on PPAR-gamma was below 5 µM; on PPAR-alpha, 5 to 100 µM; on PPAR-delta, below 5 µM.

`CC1(C)CN(c2ccc(C(F)(F)F)cn2)CCN1S(=O)(=O)c1ccc2c(c1)C(C(=O)O)CC2` (stereo not drawn) [Example 38, 6-[2,2-Dimethyl-4-(5-trifluoromethyl-pyridin-2-yl)-piperazine-1-sulfonyl]-indan-1-carboxylic acid]: the 50% effective concentration (EC50) on PPAR-gamma, on PPAR-alpha and at PPAR-delta was below 5 µM throughout.

As for `COC(=O)[C@H]1CN(S(=O)(=O)c2ccc3c(c2)C(C(=O)O)CC3)CCN1c1ccc(C(F)(F)F)cn1` (stereo partly drawn) [Example 39, (R)-4-(3-Carboxy-indane-5-sulfonyl)-1-(5-trifluoromethyl-pyridin-2-yl)-piperazine-2-carboxylic acid methyl ester], the concentration for a half-maximal effect (EC50) on PPAR-gamma, at PPAR-alpha and on PPAR-delta was below 5 µM in each case.
